{
  "source": "paper PMC9166630",
  "about": "“SAR Probing of KX2-391 Provided Analogues With Juxtaposed Activity Profile Against Major Oncogenic Kinases” (Frontiers in Oncology, 2022)",
  "origin": "cited, not measured here",
  "system": "HT-29 colon cancer cell line",
  "parameters": "method as in PMID 29617135",
  "conditions": "read-out: GI50, HT29 (Colon Cancer); cited from earlier work",
  "data": [
    {"smiles": "O=C(Cc1ccc(-c2ccccc2)cc1)NCc1cccc(F)c1", "note": "[KX1-136]", "values": [
      {"measurement": "GI50", "result": 877, "unit": "nM"}
    ]}
  ]
}
